The subject of the assay is parsley (Petroselinum crispum). Briefly: Resistance of parsley to flooding (abiotic) stress after watering with sample solutions. Type of assay: in vivo. The note with it: potted parsley, watering every three days with 40 ml of 97% water+3% of the sample, observed after 18 days, vs water control. How it is done:
The effectiveness of each combination on the plants tolerance to abiotic stress is analyzed.
Before the treatment all the leaves of the parsley plants are cut off.
This abundant watering is intended to mimic a flooding stress.
Each batch consists of four pots.
After 18 days the plants are observed, and pictures are taken.

As to `CC[C@H](CC[C@@H](C)[C@H]1CC[C@H]2[C@@H]3CC=C4C[C@@H](O)CC[C@]4(C)[C@H]3CC[C@]12C)C(C)C` [A, beta-sitosterol], the “effect on the plants' tolerance to stress (flooding stress)” value was “All the samples, except the beta sitosterol alone (sample A), show a positive effect”.
